Structures are written as SMILES. Where “and” joins values, the source holds several entries; their conditions need not be identical. Identical values can stand only once.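 Briefly, cells in 96-well plates were exposed to five compound concentrations for 48 h, and endpoints were estimated by linear interpolation. Here, GI50 denotes the concentration required for 50% inhibition of growth. Definition used: TGI = concentration required for complete inhibition of growth.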 Bounds are passed on as bounds.

From PubChem BioAssay (NCI) come the findings set out here.

Some test systems named below: DU-145 prostate; EKVX NSCLC; HCT-116 colon; HT29 colon; LOX IMVI melanoma; NCI-H23 lung; NCI/ADR-RES ovarian; OVCAR-3 ovarian; OVCAR-4 ovarian; SK-MEL-5 melanoma.
Common to all, as to experiment: NCI tumour cell line growth inhibition, 48 h

With `C=C1C(=O)O[C@H]2[C@H]1CC/C(COC(=O)CSCSCC(=O)OC/C1=C/CC[C@@]3(C)O[C@H]3[C@H]3OC(=O)C(=C)[C@@H]3CC1)=C\CC[C@@]1(C)O[C@@H]21`, the GI50 was 1.66 µM with DU-145 prostate; 1.6 µM in the test with EKVX NSCLC; 0.59 µM in the test on HCT-116 colon; 1.37 µM in the test with HT29 colon; 1.3 µM in the test on LOX IMVI melanoma; 1.83 µM in the test on NCI-H23 lung. For the same compound, the GI50 was 3.25 µM with NCI/ADR-RES ovarian, 1.2 µM in the test with OVCAR-3 ovarian, 2.68 µM with OVCAR-4 ovarian and 1.95 µM in the test on SK-MEL-5 melanoma. The TGI with DU-145 prostate was found to be 3.19 µM; in the test with EKVX NSCLC it was 3.38 µM; in the test with HCT-116 colon, 1.93 µM; in the test with HT29 colon, 2.82 µM; with LOX IMVI melanoma it was 2.65 µM; with NCI-H23 lung, 4.01 µM. Further, the TGI with NCI/ADR-RES ovarian worked out at 12.3 µM; with OVCAR-3 ovarian it was 2.54 µM; in the test with OVCAR-4 ovarian, 8.74 µM; in the test with SK-MEL-5 melanoma, 4.33 µM.
With `CCCCON(OC(=O)c1ccc2ccccc2c1)C(=O)c1ccccc1`, the GI50 is above 100 µM in the test on DU-145 prostate; above 100 µM in the test with EKVX NSCLC; 34.8 µM in the test with HCT-116 colon; above 100 µM in the test with HT29 colon; 25.3 µM with LOX IMVI melanoma; 90.2 µM with NCI-H23 lung. The GI50 in the test with NCI/ADR-RES ovarian, in the test on OVCAR-3 ovarian, in the test on OVCAR-4 ovarian and with SK-MEL-5 melanoma was above 100 µM each time. For the same compound, the TGI with DU-145 prostate is above 100 µM; in the test on EKVX NSCLC, above 100 µM; in the test on HCT-116 colon it was above 100 µM; with HT29 colon, above 100 µM; in the test on LOX IMVI melanoma it was 72 µM; with NCI-H23 lung it was above 100 µM. Moreover, the TGI in the test on NCI/ADR-RES ovarian, with OVCAR-3 ovarian, in the test with OVCAR-4 ovarian and with SK-MEL-5 melanoma was above 100 µM each time.
Turning to `N=C1C(c2nc3ccccc3s2)=C(O)CN1c1ccc(F)c(Cl)c1`, the GI50 with DU-145 prostate is 36.1 µM; in the test with EKVX NSCLC, 48.5 µM; with HCT-116 colon, 24.2 µM; with HT29 colon, 28.9 µM; in the test with LOX IMVI melanoma, 20.3 µM; with NCI-H23 lung, 34.8 µM. The GI50 was 26.9 µM with NCI/ADR-RES ovarian, 17.7 µM in the test with OVCAR-3 ovarian, 20.5 µM in the test with OVCAR-4 ovarian and 14.6 µM with SK-MEL-5 melanoma. Moreover, the TGI in the test on DU-145 prostate, with EKVX NSCLC, with HCT-116 colon, with HT29 colon, with LOX IMVI melanoma and in the test with NCI-H23 lung was above 100 µM in each case. Further, the TGI with NCI/ADR-RES ovarian is 80.6 µM; with OVCAR-3 ovarian, 60.4 µM; in the test on OVCAR-4 ovarian, above 100 µM; with SK-MEL-5 melanoma it was 49.5 µM.
For `O=c1[nH]c(=O)c2cn[nH]c2[nH]1`, the GI50 with DU-145 prostate, with EKVX NSCLC, in the test on HCT-116 colon, in the test with HT29 colon, in the test on LOX IMVI melanoma and in the test on NCI-H23 lung was above 100 µM in each case. Moreover, the GI50 in the test on NCI/ADR-RES ovarian, with OVCAR-3 ovarian, in the test with OVCAR-4 ovarian and in the test with SK-MEL-5 melanoma was above 100 µM in each case. Further, the TGI with DU-145 prostate, with EKVX NSCLC, with HCT-116 colon, in the test on HT29 colon, in the test on LOX IMVI melanoma and in the test with NCI-H23 lung was above 100 µM each time. The TGI in the test on NCI/ADR-RES ovarian, in the test on OVCAR-3 ovarian, in the test with OVCAR-4 ovarian and with SK-MEL-5 melanoma was above 100 µM in each case.
Regarding `COC(=O)C1CC23CCCN4CCC5(c6ccccc6N(C=O)C15CC2)C43` (stereo not given), the TGI in the test on DU-145 prostate, with EKVX NSCLC, with HCT-116 colon, in the test with HT29 colon, in the test on LOX IMVI melanoma and in the test on NCI-H23 lung was above 100 µM each time. In addition, the TGI in the test on NCI/ADR-RES ovarian, with OVCAR-3 ovarian, in the test with OVCAR-4 ovarian and in the test with SK-MEL-5 melanoma was above 100 µM each time.
Take `CN(CCO)CC[C@H](CSc1ccccc1)Nc1ccc(S(=O)(=O)NC(=O)c2ccc(N3CCC([C@@H](O)c4ccccc4-c4ccc(Cl)cc4)CC3)cc2)cc1S(=O)(=O)C(F)(F)F`: the GI50 in the test on DU-145 prostate was 21 µM; in the test with EKVX NSCLC, 20.4 µM; in the test on HCT-116 colon it was 2.26 µM; with HT29 colon it was 7.45 µM; with LOX IMVI melanoma, 1.43 µM; in the test on NCI-H23 lung it was 17.7 µM. Also, the GI50 was above 100 µM with NCI/ADR-RES ovarian, 3.71 µM in the test with OVCAR-3 ovarian, 17.6 µM in the test with OVCAR-4 ovarian and 1.69 µM in the test with SK-MEL-5 melanoma. Further, the TGI with DU-145 prostate is above 100 µM; with EKVX NSCLC, above 100 µM; with HCT-116 colon, 6.8 µM; in the test with HT29 colon, 60.6 µM; with LOX IMVI melanoma, 2.97 µM; in the test with NCI-H23 lung, above 100 µM. Further, the TGI with NCI/ADR-RES ovarian is above 100 µM; in the test on OVCAR-3 ovarian, 13 µM; with OVCAR-4 ovarian, above 100 µM; with SK-MEL-5 melanoma, 3.25 µM.
Consider `CC[C@@H]1c2c(C#N)ncn2-c2cnc(Nc3ccc(C(=O)NC4CCN(C5CCN(CC6CC6)CC5)CC4)cc3OC)nc2N1C1CCCC1`, for which the GI50 with DU-145 prostate is 0.0235 µM and 0.0353 µM; in the test on EKVX NSCLC it was 1.06 µM; in the test with HCT-116 colon, 0.0313 µM; with HT29 colon, 0.036 µM; with LOX IMVI melanoma it was 0.0368 µM; with NCI-H23 lung, 0.0374 µM. The GI50 is 1.29 µM in the test with NCI/ADR-RES ovarian; 0.0401 µM with OVCAR-3 ovarian; 0.214 µM in the test on OVCAR-4 ovarian; 0.13 µM and 0.182 µM in the test with SK-MEL-5 melanoma. For the same compound, the TGI in the test on DU-145 prostate was 0.072 µM and 0.246 µM; in the test on EKVX NSCLC, 2.46 µM; in the test with HCT-116 colon, 1.19 µM; with HT29 colon it was 0.135 µM; in the test on LOX IMVI melanoma, 1.06 µM; with NCI-H23 lung it was 1.38 µM. The TGI in the test with NCI/ADR-RES ovarian was 2.8 µM; with OVCAR-3 ovarian, 1.63 µM; in the test with OVCAR-4 ovarian, 1.7 µM; in the test on SK-MEL-5 melanoma, 1.52 µM and 1.68 µM.
